# Where two headings read alike, the source gives them in different places.
# How the values were obtained:
# [1] = tested on: NF-κB target genes (IL-8 and TNF); experiment: Real-time PCR of NF-κB target genes (IL-8 and TNF) in HepG2 and Hep3B; format: cell-based; details: 2 h after exposure; basal and TNF-induced; both HCC cell lines
# [2] = tested on: HepG2 hepatocellular carcinoma tumors; experiment: HepG2 study: CBL0137/sorafenib against HepG2 HCC tumor engrafts; format: in vivo, nude mice
# Source text: (§1) Seventy and sixty female athymic nude mice were obtained for each H1975 Non-Small Cell Lung Cancer Xenograft study and split into treatment groups consisting of 10 animals per group (2 cages of 5 mice per cage).
# (§2) Preparation and subcutaneous implantation of tumor pieces: HepG2 tumors (passage 2 for HepG2 study and passage 1 for HepG2 (sub-dose CLB0137) study) or Hep3B tumors (passage 1 for Hep3B study and passage 9 for Hep3B (sub-dose CLB0137) study) were propagated in athymic nude mice and harvested from euthanized mice when they reached ˜500-900 mm^3. PDA tumors (passage 6) were propagated in SCID mice (both flanks) and harvested from euthanized mice when they reached ˜600-700 mm^3 in size. Harvested tumors were transferred to a sterile Petri dish containing RPMI-10% FBS medium or D-PBS plus penicillin/streptomycin. Enough media was added to bathe the tumor in order to ensure the viability of the transplant material. Tumors were dissected into 2 mm×2 mm cubes using a sterile scalpel. Care was taken to make the pieces as uniform in size and shape as possible. Tumor pieces were implanted into recipient mice immediately after being prepared.
# (§3) Tumor Size Measurements: Tumor size was measured by digital caliper in two dimensions (in mm): maximum length (l) and maximum width (w) taken perpendicular to one another. The measurements were used to calculate tumor volume according to the formula: tumor volume=(l×w2)/2 (w<l). The value obtained by this formula is also equal to the mass of the tumor in mg. Starting 2 days after tumor implantation, tumor measurements were made every 2-3 days prior to treatment initiation and then twice per week (e.g., on Day 1 (D1, the day of treatment initiation), D4, D8, D11, D15, D18, D22, D25, D29, D32, D36, D39, D43, D46, D50, D53 and D57). Tumor measurements were collected more frequently when tumor size approached the tumor size endpoint in order to prevent passing the endpoint between scheduled measurements.
# (§4) Administration of test and control articles: Mice were administered the designated solutions when the mean tumor volume per treatment group was ˜45-200 mm^3.
# (§5) The volume of the dosing solution administered orally or intravenously was 8 ml/kg of body weight, Intravenous injections were performed via the tail vein. Administration of drugs was done slowly without force on the syringe.
# (§6) Monitoring and Sample Collection: Twice daily, mice were monitored for mortality and morbidity for the duration of the experiment. […] All abnormal observations were documented and semi-quantitative scores were assigned for “body condition,” “posture,” and “activity.” Scores of 4, 3, 2, and 1 were assigned to normal conditions (4), and slightly (3), moderately (2) and severely (1) abnormal conditions, respectively. Cages were taken to a laminar flow hood and opened in order to clearly assess mouse activity.
# Data analysis: For all study groups, maximum tumor growth inhibition was calculated for Day 11, 13, or 15 (Day X). […] For each tumor, relative tumor size was calculated relative to its size on Day 1 when treatment was initiated (i.e., fold tumor growth). To calculate the maximum tumor growth inhibition for each tumor, the following equation was used: 100−(fold tumor growth drug-treated Day X/mean fold tumor growth vehicle-treated Day X)*100. Differences in tumor sizes between groups were determined using ANOVA analysis (GraphPad Prism 5 Software) where “*” refers to P=0.01-0.05 (significant), “**” refers to P=0.001-0.01 (very significant) and “***” refers to P<0.001 (extremely significant), Differences that were not statistically significant are indicated with “ns”.
# [3] = tested on: HepG2 hepatocellular carcinoma tumors; experiment: HepG2 (sub-dose CBL0137) study; format: in vivo, nude mice
# Source text: as §1, §2, §3, §4, §5, §6
# Data analysis: For all study groups, maximum tumor growth inhibition was calculated for Day 11, 13, or 15 (Day X). […] For each tumor, relative tumor size was calculated relative to its size on Day 1 when treatment was initiated (i.e., fold tumor growth). To calculate the maximum tumor growth inhibition for each tumor, the following equation was used: 100−(fold tumor growth drug-treated Day X/mean fold tumor growth vehicle-treated Day X)*100. Differences in tumor sizes between groups were determined using ANOVA analysis (GraphPad Prism 5 Software) where “*” refers to P=0.01-0.05 (significant), “**” refers to P=0.001-0.01 (very significant) and “***” refers to P<0.001 (extremely significant), Differences that were not statistically significant are indicated with “ns”. […] Tumor growth delay (T−C) was calculated by subtracting the median time for the control to reach the 1000 mm^3 size endpoint from that of the median time for the treated groups to reach the size endpoint.
# [4] = tested on: Hep3B hepatocellular carcinoma tumors; experiment: Hep3B (sub-dose CBL0137) study; format: in vivo, nude mice
# Source text: as §1, §2
# Tumor Size Measurements: Tumor size was measured by digital caliper in two dimensions (in mm): maximum length (l) and maximum width (w) taken perpendicular to one another. The measurements were used to calculate tumor volume according to the formula: tumor volume=(l×w2)/2 (w<l). The value obtained by this formula is also equal to the mass of the tumor in mg. […]
# (§7) Monitoring and Sample Collection: Twice daily, mice were monitored for mortality and morbidity for the duration of the experiment. […] All abnormal observations were documented and semi-quantitative scores were assigned for “body condition,” “posture,” and “activity.” Scores of 4, 3, 2, and 1 were assigned to normal conditions (4), and slightly (3), moderately (2) and severely (1) abnormal conditions, respectively. […]
# (§8) Data analysis: For all study groups, maximum tumor growth inhibition was calculated for Day 11, 13, or 15 (Day X). […] For each tumor, relative tumor size was calculated relative to its size on Day 1 when treatment was initiated (i.e., fold tumor growth). […] Differences in tumor sizes between groups were determined using ANOVA analysis (GraphPad Prism 5 Software) where “*” refers to P=0.01-0.05 (significant), “**” refers to P=0.001-0.01 (very significant) and “***” refers to P<0.001 (extremely significant), Differences that were not statistically significant are indicated with “ns”. […] Tumor growth delay (T−C) was calculated by subtracting the median time for the control to reach the 1000 mm^3 size endpoint from that of the median time for the treated groups to reach the size endpoint.
# [5] = tested on: HepG2 and Hep3B; details: HepG2 only (Hep3B is p53 null)
# Source text: Specifically, the Western blots monitored expression of spt16, SSRP1, p53, p21, P-ERK, ERK, Mcl-1, and GAPDH (control). Panel A corresponds to the tumor-bearing nude mice from the HepG2 study whereas Panel B corresponds to the tumor-bearing nude mice from the Hep3B study.
# Specifically, the Western blots monitored the effect of drug treatment on expression of spt16, SSRP1, p53, p21, P-ERK, ERK, Mcl-1, and GAPDH (control) proteins, of which most are involved in cell cycle progression and regulation.
# [6] = tested on: Hep3B hepatocellular carcinoma tumors; format: in vivo, nude mice
# Source text: as §1, §2, §3, §4
# The volume of the dosing solution administered orally or intravenously was 8 ml/kg of body weight, Intravenous injections were performed via the tail vein. […]
# as §7, §8
# [7] = median time to reach tumor size endpoint, treated minus control
structure (smiles),measurement,setting,value
CNC(=O)c1cc(Oc2ccc(NC(=O)Nc3ccc(Cl)c(C(F)(F)F)c3)cc2)ccn1 [sorafenib],expression of NF-κB target genes (IL-8 and TNF),[1],"have an effect on expression of NF-κB target genes, albeit less than CBL0137"
same,T/C %,"[2]; Day 15, sorafenib 15 mg/kg po daily, CBL0137 70 mg/kg iv Q4d",72.6%
same,mean change in tumor volume versus Day 1,"[2]; Day 15, sorafenib 15 mg/kg po daily, CBL0137 70 mg/kg iv Q4d, vehicle 9.0-fold",8.4 fold
same,antitumor efficacy (in words),[2]; HepG2 study summary,had no effect against HepG2 tumor growth
same,median survival time (MST),"[2]; HepG2 study, sorafenib 15 mg/kg po daily, CBL0137 70 mg/kg iv Q4d, 4 weeks, vehicle 15 days",15 days
same,Tumor growth delay (T−C),[2]; [7],5.65 days
same,tumors that grew showing some degree of regression during the course of treatment,"[2]; sorafenib 15 mg/kg po daily, CBL0137 70 mg/kg iv Q4d, vehicle 0/16",0/14
same,mean change in tumor volume versus Day 1,"[3]; Day 13, vehicle 13.2-fold",3.2 fold
same,antitumor efficacy (in words),[3]; HepG2 (sub-dose CBL0137) study summary,effectively suppressed HepG2 tumor growth
same,tumor growth inhibition,[3]; between Days 1 and 13,76%
same,median time to reach the tumor size endpoint,"[3]; by extrapolation from exponential growth curves, vehicle 12.6 days",29.6 days
same,Tumor growth delay (T−C),[3]; [7],17 days
same,median survival time (MST),"[3]; sorafenib 30 mg/kg po daily, CBL0137 60 mg/kg iv Q4d, 4 weeks, vehicle 13 days",27.5 days
same,mean change in tumor volume versus Day 1,"[4]; Day 15, vehicle 21.0-fold",10.2 fold
same,tumor growth inhibition,[4]; between Days 1 and 15,51.4%
same,antitumor efficacy (in words),"[4]; dT, time to endpoint, growth delay, T/C %",stronger beneficial effect
same,median survival time (MST),"[4]; sorafenib 30 mg/kg po daily, CBL0137 50 mg/kg iv Q4d, 4 weeks, vehicle 14.5 days",21.5 days
same,induction of p53 and p21 by CBL0137 (Western blot),[5],blocked this induction
same,tumor growth inhibition,[6]; Day 11,67.2%
same,T/C %,"[6]; Day 11, size relative to vehicle-treated tumors",33.4%
same,mean change in tumor volume versus Day 1,"[6]; Day 11, vehicle 9.08-fold",2.98 fold
same,antitumor efficacy (in words),[6]; Hep3B study summary,efficacious in suppressing growth of Hep3B engrafts
same,median survival time (MST),"[6]; sorafenib 30 mg/kg po daily, CBL0137 60 mg/kg iv Q4d, 4 weeks, vehicle 11 days",25 days

# — patent publication US10434086B2, “Combination therapies with curaxins” (Incuron, Inc., priority 2014, dated 2019)
